This is an account of results in publication PMC7006816, “Human β-Defensin 2 Mediated Immune Modulation as Treatment for Experimental Colitis” (Frontiers in Immunology, 2020).

Where no end group is shown, it is not given here.

Data set [1] has as its system human primary PBMC's. The experiment in a line: Stimulation of PBMCs of healthy volunteers with TLR ligands, cytokine release. In kind it is cell-based. The settings on record: hBD2 100, 40, 10 or 1 μg/ml, 24 h, cytometric bead array. As for the experimental part: Heparinized blood was diluted 1/1 v/v with RPMI (Gibco) and was subjected to Ficoll-Paque Plus (GE healthcare) density centrifugation within 2 h of drawing. Plasma was collected from the top from individual donors and was kept on ice until it was used at 2% in the culture medium (autologous culture medium). Isolated PBMC's were re-suspended in autologous culture medium and seeded in 96-well culture plates with 115.500 cells per well (Figure 1) or 200.000 cells per well (Figure 2) in a total of 200 μl. […] The supernatants were collected after incubation at 37°C for 24 h, and stored at −80°C until cytokine measurement.
The experiment in Figure 1 was performed with healthy volunteers, which were recruited under an approval from the Ethical Committee for Region Capital, Denmark. Interleukin 1β (IL-1β) and tumor necrosis factor alpha (TNF-α) (Figure 1) were quantified in supernatants by flow cytometry using a human inflammation cytometric bead array (CBA) according to manufacturer's instructions (BD) using a FACSarray flow cytometer. IL-1β, TNF- α, Interferon gamma (INF-y), Interleukin 12p70 (IL-12), and Interleukin 23 (IL-23) were analyzed using a human inflammation cytometric bead array (LegendPlex Biolegends) according to manufacturer's instructions.

Data set [2] concerns SCID mice with CD4+/CD25− T cell transfer colitis. The experiment in a line: T cell transfer colitis model. It counts as in vivo, mouse. As for the experimental part:
This study was performed by the Department of Biomedical Science at the University of Catania according to directive 86/609 EEC and approved by Novozymes science ethics committee. 8 weeks old female BALB/c and C.B-17 female SCID mice were purchased from Harlan (Italy). Colitis was induced in severe combined immunodeficiency (SCID) mice by transplantation of CD4^+/CD25^− T cells from the BALB/c mice. Briefly, lymphomonocytes isolated from spleen or lymph nodes from BALB/c mice were subjected to negative selection of CD4^+ T cells. Afterwards, CD4^+/CD25^+ cells were positively isolated by binding to the beads from the CD4^+ T cell suspensions and the CD4^+/CD25^− were collected from supernatant. […] CD4^+/CD25^− cells were intraperitoneally injected to SCID mice at a concentration of 500,000 cells in a final volume of 0.2 ml RPMI 1640. Sham treated animals (n = 6) received 0.2 ml pure RPMI 1640. Diseased mice were randomized divided into 4 groups (n = 11) and treated once daily by s.c. application of PBS (vehicle), hBD2 (0.1 and 1 mg/kg, respectively) or 0.3 mg/kg Dexamethasone (Dexa., applied intraperitoneally). Treatments started 7 days post T cell transfer and continued daily for 86 days. Animals were weighed three times a week and monitored twice a week starting from day 42 for the clinical status, summarized as DAI. The DAI included body weight loss, stool consistency, and the presence of blood at the rectum. One animal in the vehicle and one in the Dexamethasone treated groups had to be sacrificed before the end of the study. At the end of the study, animals were sacrificed and the colon was removed and carefully cleaned for further analysis. First, the colon was weighed then a section from the middle was removed and fixed for pathologic survey. The rest of the colon (5 cm) was used to quantify the activity of myeloperoxidase in the tissue.
Myeloperoxidase activity was performed on 5 cm of colon previously frozen at −80°C. Colon was homogenized in 0.5% of HETAB dissolved in 10 mM of Phosphate-Citrate Buffer (pH 7.0) to enable the release of MPO enzyme from the neutrophil granules. Homogenated samples after three freeze-thaw cycles were spun at 3,000 × g at 4°C for 30 min. Pellets were resuspended in 0.5% HETAB in 10 mM Phosphate-Citrate Buffer and spun again at 3,000 × g at 4°C for 30 min. 500 ul of supernatant were delivered into a vial along with 500 ul of TMB in Phosphate-Citrate Buffer containing Perborate Sodium. Changes in absorbance at 620 and 450 nm were read by a spectrophotometer (IRIS). Peroxidase enzyme diluted in 0.5% HETAB in 10 mM Phosphate-Citrate Buffer and H2O was used as standard. Two-fold dilutions of standard were prepared at the highest concentration of 50 pg/ml. Reagents and samples were kept refrigerated. Substrate solution was prepared just before the assay. MPO activity expresses the amount of enzyme that is able to degrade […] of peroxide/min and it is expressed as U/g tissue weight.
Sections of the colon were taken from each animal and preserved in neutral buffered formaline for subsequent histological analysis. Sections were stained using haematoxylin and eosin for further scoring.

Data set [3] concerns intestinal epithelial cells. The settings on record: cited from earlier work. The text has this: (§1) Herein we report that hBD2 can be used as a systemically administered anti-inflammatory biological. hBD2 is well-tolerated, both in vitro, and in vivo. […] After su ...
The subject of data set [4] is human mesenchymal stem cells, osteoblasts, keratinocytes, and HeLa cells. The conditions noted are these: cited from earlier work.
Text: as §1

Setting [5] is: hBD2 1 mg/kg s.c. daily, n = 11.

Consider “human β-defensin 2 (GIGDPVTCLKSGAICHPVFCPRRYKQIGTCGLPGTKCCKKP; not fully specified; ends and bridges not checked) [hBD2, Recombinant human β-defensin 2 expressed in E. coli as his-tagged thioredoxin fusion, cleaved and purified, natural tertiary structure]”, for which, in data set [1] (LPS 20 pg/ml, n = 150–194), the “Release of IL-1β” value is “consistently mitigated release of both cytokines” and the “Release of TNF-α” value is “consistently mitigated release of both cytokines”. For the same substance, in data set [1] (Pam3CSK4 0.3 μg/ml), the “Release of IL-1β” value is “significantly reduced” and the “Release of TNF-α” value is on record as “significantly reduced”. The “Outcome of T cell mediated colitis” value in data set [2] (hBD2 0.1 mg/kg s.c. daily, n = 11) is on record as “did not improve the outcome of T cell mediated colitis”. Also, the “Histological analysis of colon” value in data set [2] (hBD2 1 mg/kg s.c. daily) was “less signs of inflammation and tissue disruption”. Also, the Weight change result in data set [2] (hBD2 1 mg/kg s.c. daily from day 7 after transfer, n = 11) is listed as “less weight loss”. Further, in data set [2] (hBD2 1 mg/kg s.c. daily, end of experiment, n = 11), the Colon weight result is on record as “significantly reduced the colon weight”. In data set [2] (setting [5]), the DAI result is “improved DAI” and the Stool score result is given as “Same trait was observed for the stool score”. Further, the Colonic myeloperoxidase activity result in data set [2] (hBD2 s.c. daily (0.1 or 1 mg/kg), end of experiment) is “Only a minor effect”. The Tolerability result in data set [3] is “well-tolerated by intestinal epithelial cells”. Also, in data set [4], the Cytotoxic effects result is “without observing cytotoxic effects”.
